Experimental data: PubChem BioAssay (NCI)
In brackets after ≈: the same amount, converted by molar mass. Several values for one entry are separate records, joined by “and”; a condition that tells them apart may be missing. Equal values may be shown once.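 Five concentrations, 48 hours, 96-well plates. GI50 = concentration required for 50% inhibition of growth. TGI: total growth inhibition.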 Where a SMILES comes first, the peptide text is derived from it. The star is where a group is joined. Boc = CC(C)(C)OC(=O)*; OBn = c1ccc(CO*)cc1

Key:
Assay in all cases: NCI-60 cell line screen, 48 h
CCRF-CEM leukemia = test system: CCRF-CEM leukemia
NCI-H460 lung = test system: NCI-H460 lung
RXF 393 renal = test system: RXF 393 renal
DU-145 prostate = test system: DU-145 prostate
TK-10 renal = test system: TK-10 renal
MDA-MB-435 = test system: MDA-MB-435
T-47D breast = test system: T-47D breast
EKVX NSCLC = test system: EKVX NSCLC
IGROV1 ovarian = test system: IGROV1 ovarian
NCI-H522 lung = test system: NCI-H522 lung

Structure (SMILES)	TGI (CCRF-CEM leukemia)	TGI (NCI-H460 lung)	TGI (RXF 393 renal)	TGI (DU-145 prostate)	TGI (TK-10 renal)	TGI (MDA-MB-435)	TGI (T-47D breast)	TGI (EKVX NSCLC)	TGI (IGROV1 ovarian)	GI50 (CCRF-CEM leukemia)	GI50 (NCI-H460 lung)	GI50 (IGROV1 ovarian)	GI50 (RXF 393 renal)	GI50 (DU-145 prostate)	GI50 (TK-10 renal)	GI50 (NCI-H522 lung)	TGI (NCI-H522 lung)	GI50 (EKVX NSCLC)	GI50 (MDA-MB-435)	GI50 (T-47D breast)
CC(C)(C)OC[C@H](O)CC#N	> 100 µM	> 100 µM	> 100 µM	> 100 µM	> 100 µM	> 100 µM	> 100 µM	> 100 µM												
Cc1ccc(S(=O)(=O)c2c(O)c3ccccc3n(C)c2=O)cc1	> 100 µM	> 100 µM	> 100 µM	> 100 µM		> 100 µM	> 100 µM	> 100 µM	> 100 µM											
COc1ccc(C(=O)N2c3ccccc3Sc3ccccc32)c(C(F)(F)F)c1	> 100 µM	> 100 µM	> 100 µM	> 100 µM	> 100 µM			> 100 µM	> 100 µM	87.9 nM	383 nM	2200 nM	362 nM	433 nM	16.7 µM	320 nM	14.5 µM	613 nM		
COC(=O)[C@@]12CCCC(=O)[C@@H]1[C@H]1CCCC[C@H]12	> 100 µM	> 100 µM	> 100 µM	> 100 µM	> 100 µM	> 100 µM		> 100 µM	> 100 µM								> 100 µM			
O=C(N[C@H]1c2ccsc2/C(=N/O)[C@H]1O)C(F)(F)F	> 100 µM	> 100 µM	> 100 µM	> 100 µM	> 100 µM	> 100 µM	> 100 µM	> 100 µM	> 100 µM											
COc1ccc2c(c1)/c(=C/c1ccc(N(C)C)cc1)c1cc(-c3ccccc3)[n+](C)n12			1.64 µM	2.51 µM and 1.84 µM	5.32 µM and 6.29 µM	1.47 µM		1.42 µM	0.543 µM	85.9 nM				108 nM	0.711 µM					
O=C1C(Br)=C(c2ccccc2)S(=O)c2ccccc21 (configuration not stated)		40.6 µM	24.8 µM	27.9 µM	32.2 µM	19.5 µM	10.6 µM	33.9 µM	23.1 µM								3.35 µM			
CC1(Cl)CC2C(CC1Sc1nnnn1-c1ccccc1)C2(C)C (configuration not stated)	> 100 µM	> 100 µM	> 100 µM		> 100 µM			> 100 µM	> 100 µM											
CC(C)(C)OC(=O)NC(Cc1ccccc1)C(=O)NC(Cc1ccccc1)C(=O)NCC(=O)OCc1ccccc1 (stereo not drawn) (Boc-Phe-Phe-Gly-OBn; configuration not given here)	43.1 µM	49.9 µM		33.2 µM	53.1 µM	> 100 µM	> 100 µM	> 100 µM	26.5 µM								48.8 µM			
C[C@]12CC[C@H](O)CC1=CC[C@@H]1[C@@H]2CC[C@]2(C)/C(=N/OCCN3CCCC3)CC[C@@H]12		24.8 µM	29.3 µM		63.6 µM	29.4 µM		49.2 µM	34.3 µM								25.7 µM			
CCOc1cc(C2CC(c3ccc(NS(=O)(=O)c4cc([N+](=O)[O-])ccc4C)cc3)=NN2)ccc1O (configuration not stated)	> 100 µM		40.4 µM	> 100 µM		85.9 µM	82.9 µM	53.3 µM	> 100 µM								> 100 µM			
NCCCCNCCCNC(=O)c1nc(-c2csc(CCN)n2)sc1Cl	> 100 µM	> 100 µM	> 100 µM		> 100 µM			> 100 µM	> 100 µM								> 100 µM			
C[n+]1c2ccccc2c(C(=O)Nc2ccc(S(=O)(=O)N=C(N)N)cc2)c2ccccc21		> 100 µM		> 100 µM	> 100 µM	> 100 µM	> 100 µM	> 100 µM	> 100 µM								> 100 µM			
COc1cccc(-c2cc(=O)c3ccc(C)nc3[nH]2)c1		> 100 µM	> 100 µM	3.7 µM	> 100 µM	0.0335 µM	> 100 µM	> 100 µM	> 95.1 µM								> 100 µM			
COC(=O)C1(Cc2ccccc2)Cc2ccccc2C1	42.4 µM	84.9 µM		> 100 µM	> 100 µM	41.8 µM	90.8 µM	89.4 µM	> 100 µM											
CCc1ccc2c(c1)CC1(C2)Cc2cc3c(cc2C1)C(=O)CC3 (configuration not stated)	8.31 µM		> 100 µM		> 100 µM	8.53 µM	85 µM	> 100 µM	> 100 µM								57.3 µM			
COc1cc(/C=C2/N=C(c3ccccc3)N(C3=NNC4(C(=O)N3)c3ccccc3-c3ccccc34)NC2=O)ccc1O	> 150 µg/mL	49.1 µg/mL	48.6 µg/mL	63.6 µg/mL	78.2 µg/mL	54.4 µg/mL	65 µg/mL	15 µg/mL	63.3 µg/mL	46.3 µg/mL	28 µg/mL	30.4 µg/mL	26.7 µg/mL	31.3 µg/mL	35.8 µg/mL			15 µg/mL	26.7 µg/mL (≈ 47.9 µM)	17 µg/mL (≈ 30.6 µM)
CCCCOCn1c(=O)[nH]c(=O)c2cc(Br)ccc21	> 100 µM		> 100 µM	> 100 µM	> 100 µM	> 100 µM		> 100 µM	> 100 µM											
Cn1cnc2c(sc3nc4ccccc4n32)c1=N	> 100 µM		> 100 µM	> 100 µM	> 100 µM	> 100 µM	> 100 µM	> 100 µM	> 100 µM											
COc1cc(C2SCC(=O)N2c2ccc(Oc3ccc(Cl)cc3)c(Cl)c2)cc(OC)c1OC (configuration not stated)		> 100 µM		27.3 µM	33.9 µM	41.3 µM	27.5 µM	56.2 µM	30.7 µM								37.1 µM			
O=C(NCCCNCCNC(=O)c1cc(-c2ccccc2)nc2ccccc12)c1cc(-c2ccccc2)nc2ccccc12	3.42 µM	3.31 µM			3.14 µM	3.15 µM		5.2 µM	3.59 µM								3.14 µM			
CC(=O)Oc1ccc(C2COc3cc(OC(C)=O)c(OC(C)=O)cc3C2)cc1 (configuration not stated)	58.1 µM	47.3 µM	23.8 µM					32 µM	31.2 µM								7.78 µM			
